Experiments:
[1] = tested on: Bst DNA polymerase, Taq DNA polymerase, MMLV-RT; assay: Polymerase extension of 32P-labeled 12-mer primer on synthetic 30-mer template to full-length product; format: biochemical; conditions: all three polymerases
Description: The ability of the Bacillus sterothermophilus (Bst) DNA polymerase (New England Biolabs), the Thermus aquaticus (Taq) DNA polymerase (Amersham) and the Moloney Murine Leukemia Virus reverse transcriptase (MMLV-RT) (Amersham) to incorporate the 2-amino-2′-deoxyadenosine-5′-triphosphate and 2-thiothymidine-5′-triphosphate into polynucleotides was tested using a synthetic 30-mer template and ^32P-labeled 12-mer primer (S.A. 130 Ci/mmol). (FIG. 2A). Extension reactions for each polymerase were performed in 0.65 ml pre-siliconized microfuge tubes containing the following components: (Bst) 20 mM Tris-Cl (pH 8.8 @ 25° C.), 10 mM KCl, 10 mM (NH4)2SO4, 2 mM MgSO4, 0.1% Triton-X100, 0.5 microM primer/template, 250 microM each dNTP and 0.15 units/microL Bst DNA polymerase; (Taq) 26 mM Tris-Cl (pH 9.5 @25° C.), 6.5 mM MgCl2, 0.5 microM primer/template, 250 microM each dNTP and 0.15 units/microL Taq DNA polymerase; (MMLV-RT) 50 mM Tris-Cl (pH 8.3 @ 25° C.) 75 mM KCl, 3 mM MgCl2, […], 0.5 microM primer/template, 250 microM each dNTP and 0.5 units/microL MMLV-RT. The reactions were incubated for 15 minutes at 65° C. for the Bst and Taq reactions and 42° C. for the MMLV-RT reaction. The reaction mixtures were separated by electrophoresis on 10% denaturing (7M urea) polyacrylamide gels and visualized by phosphorimaging methods.

[2] = biological target: T1, Bst DNA polymerase (Geobacillus stearothermophilus, UniProt P52026); assay: Synthesis of single-stranded 56-mer by primer extension and lambda exonuclease digestion; format: biochemical; conditions: substituted for dATP and dTTP; for full-length 56-mer product: 65° C., 30 minutes
T1 sequence (P52026 1-876): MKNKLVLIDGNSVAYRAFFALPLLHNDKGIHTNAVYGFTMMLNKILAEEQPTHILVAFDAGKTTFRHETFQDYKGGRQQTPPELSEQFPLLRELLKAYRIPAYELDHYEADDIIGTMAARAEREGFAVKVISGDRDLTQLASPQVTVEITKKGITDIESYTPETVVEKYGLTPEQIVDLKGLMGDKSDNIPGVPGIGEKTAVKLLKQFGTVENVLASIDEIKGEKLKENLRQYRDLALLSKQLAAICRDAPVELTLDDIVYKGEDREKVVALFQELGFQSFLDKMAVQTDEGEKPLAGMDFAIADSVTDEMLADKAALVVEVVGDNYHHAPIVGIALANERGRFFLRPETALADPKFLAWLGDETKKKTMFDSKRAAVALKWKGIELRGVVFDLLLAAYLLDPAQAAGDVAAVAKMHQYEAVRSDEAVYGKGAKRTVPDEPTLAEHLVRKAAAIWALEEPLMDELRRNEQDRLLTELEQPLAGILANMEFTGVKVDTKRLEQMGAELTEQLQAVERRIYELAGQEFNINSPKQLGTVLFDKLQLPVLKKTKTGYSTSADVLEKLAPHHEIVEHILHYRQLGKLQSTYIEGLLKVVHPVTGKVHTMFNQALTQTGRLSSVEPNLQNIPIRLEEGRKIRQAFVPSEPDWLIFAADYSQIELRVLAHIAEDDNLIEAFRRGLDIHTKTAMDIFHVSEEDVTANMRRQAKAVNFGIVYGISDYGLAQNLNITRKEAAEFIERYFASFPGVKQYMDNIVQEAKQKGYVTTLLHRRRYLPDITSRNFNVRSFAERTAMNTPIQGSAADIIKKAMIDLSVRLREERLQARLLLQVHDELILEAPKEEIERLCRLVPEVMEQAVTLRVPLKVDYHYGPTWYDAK
Description: Unstructured single-stranded UNA was generated by incorporating 2-aminoadenosine and 2-thiothymidine nucleotides using a 14-mer primer and 56-mer template (5′-phosphorylated) and Bst DNA polymerase followed by digestion of the DNA template with lambda exonuclease (FIG. 6). Ten microliter extension reactions were performed in 0.65 ml pre-siliconized microfuge tubes containing the following components: 20 mM Tris-Cl (pH 8.8 @ 25° C.), 10 mM KCl, 10 mM (NH4)2SO4, 2 mM MgSO4, 0.1% Triton-X100, 1.0 microM primer/template, 500 microM dGTP, 500 microM dATP (or 2-amino-2′-deoxyadenosine-5′-triphosphate), 500 microM dTTP (or 2-thiothymidine-5′-triphosphate), 200 microM ^32P--CTP and 0.8 units/microL Bst DNA polymerase. The reactions were incubated at 65° C. for 30 minutes, quenched with 5 mM EDTA, ethanol precipitated, dried and resuspended in 10 microL of 10 mM Tris-Cl pH 8.0. The 56-mer template was digested by incubating the resuspended samples with 10 units of lambda exonuclease (Strandase Kit™, (Novagen; Madison, Wis.)) for 30 minutes at 37° C. The reactions were quenched with 5 mM EDTA, ethanol precipitated, dried and resuspended in 10 microL of 10 mM Tris-Cl pH 8.0. The samples were then electrophoresed on 10% denaturing (7M urea) polyacrylamide gels and visualized using phosphorimaging methods.

SMILES | full-length product when both analogues are substituted for A and T in a single reaction mixture [1] | premature termination products [2] | full-length 56-mer product [2]
Nc1nc(N)c2ncn([C@H]3C[C@H](O)[C@@H](COP(=O)(O)OP(=O)(O)OP(=O)(O)O)O3)c2n1 [2-amino-2′-deoxyadenosine-5′-triphosphate] | full-length product was generated | little if any | full-length 56-mer product is generated
Cc1cn([C@H]2C[C@H](O)[C@@H](COP(=O)(O)OP(=O)(O)OP(=O)(O)O)O2)c(=S)[nH]c1=O [2-thiothymidine-5′-triphosphate] | full-length product was generated | little if any | full-length 56-mer product is generated
